Experimental data taken from patent US9351983B2, “Use of glycerophosphoinositols for the treatment of septic shock” (CONSIGLIO NAZIONALE DELLE RICERCHE, priority 2012, dated 2016).

Columns and labels:
human monocytes = test: In vitro model of human innate immunity inflammation: morphology and viability by light microscopy; type: cell-based; settings: 300 μM, added 20 minutes before LPS, IL-10 and TGF-β; images at 2 h, 14 h, 24 h, 48 h; one donor, preliminary
Description: FIG. 13—The in vitro model of human innate immunity inflammation. Schematic representation and timing of the in vitro stimulation of human monocytes. In order to mimic the microenvironmental changes and the timing of human host response that covers the different phases of the inflammatory reaction, from recruitment and onset, to development and resolution of inflammation, cultured cells have been exposed to sequential changes of microenvironmental conditions. Monocytes in culture were exposed to chemokine C-C motif ligand 2 (CCL2), responsible for monocytes recruitment to sites of injury through endothelial cells adhesion, lipopolysaccharide (LPS), as a pathogen insult, tumor necrosis factor α (TNFα) and interferon γ (IFN-γ) as inducers of acute phase of inflammation and finally with interleukin 10 (IL-10) and transforming growth factor β (TGF-β), responsible for the resolution of inflammation. In detail: at time zero freshly isolated human monocytes were exposed to CCL2 (20 ng/ml) at 37° C. […]
Freshly isolated human monocytes, which have been used for all the above-mentioned experiments, were purified from buffy coat prepared at I.N.T. Pascale in Naples. […] The viability of cells was determined by trypan blue staining. The purity of isolated cells (98%) was microscopically detected after centrifugation and staining with modified Wright-Giemsa dye (Diff Quick, Medion Diagnostic AG). […]

Interleukin 1β (IL-1β) = test: In vitro model of human inflammation: ELISA of IL-1β in supernatants; type: cell-based; settings: 300 μM; full inflammation (4 h and 14 h); one donor
Experimental: FIG. 16—Glycerophosphoinositol inhibits the release of cytokines. Human monocytes were purified from one donor and treated according to the in vitro model of human inflammation, previously described, in absence (blue line) or in presence (red line) of 300 μM glycerophosphoinositol. In detail, glycerophosphoinositol was added to cultured cells 20 minutes before LPS, IL-10 and TGF-β, that is, again after each wash. The growth medium was collected at time 4 h, 14 h, 24 h, 48 h; growth medium from freshly isolated monocytes was considered as control at time 0 h. The levels of cytokines Interleukin 1β (IL-1β), Tumor necrosis factor α (TNFα) and Interleukin-6 (IL-6) in the supernatants were measured by enzyme-linked immunosorbent assay (ELISA kit, R&D System) according to manufacturer's protocol. An increased release of these cytokines was observed during the full inflammation (time 4 h and 14 h) as expected. […]
Extracellular levels of IL-1β, TNFα and IL-6 were measured by enzyme-linked immunosorbent assay (ELISA) from R&D System. […] Then the recovered supernatants were loaded onto plates according to manufacturer's protocol and the concentration of the protein was assessed spectrophotometrically.

O=P(O)(OCC(O)CO)OC1C(O)C(O)C(O)C(O)C1O (centres unmarked) [GroPIns, glycerophosphoinositol]
cellular viability (light microscopy) (human monocytes): cellular viability increased
amount of IL-1β in the supernatants (Interleukin 1β (IL-1β)): significantly reduced the amount of these cytokines in the supernatants
